Values joined by “and” are separate entries in the source; they are usually repeats but may differ in a detail not shown here. Equal values may be shown once.
Test system: 648629-189-R-J1-PDC spheroids with HUVEC/MSC, viability
Assay: Anticancer human tumor 648629-189-R-J1-PDC patient-derived bladder carcinoma cell line growth inhibition [PI3K]
Settings: for viability, T/C: stronger effect = lower value; active = viability on the fitted dose curve at most 10% of control; inactive = the rest
Summary of the method: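 Stroma-containing spheroids: tumor line, pooled-donor HUVEC, hMSC. Treatments: targeted agents with PI3K inhibitors. Dosing: clinically relevant, half-log spacing, 10 microM ceiling without known Cmax. Read-out: cell viability.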

[1] = curve of first compound, second compound 0.00316 µM
[2] = curve of first compound, second compound 0.01 µM
[3] = curve of first compound, second compound 0.0316 µM
[4] = curve of first compound, second compound 0.1 µM
[5] = curve of first compound, second compound 0.316 µM
[6] = curve of first compound, second compound 1 µM
[7] = second compound 0.00316 µM, first compound 0.0316 µM
[8] = second compound 0.00316 µM, first compound 0.1 µM
[9] = second compound 0.00316 µM, first compound 0.316 µM
[10] = second compound 0.00316 µM, first compound 1 µM
[11] = second compound 0.00316 µM, first compound 3.16 µM
[12] = second compound 0.00316 µM, first compound 10 µM
[13] = second compound 0.01 µM, first compound 0.0316 µM
[14] = second compound 0.01 µM, first compound 0.1 µM
[15] = second compound 0.01 µM, first compound 0.316 µM
[16] = second compound 0.01 µM, first compound 1 µM
[17] = second compound 0.01 µM, first compound 3.16 µM
[18] = second compound 0.01 µM, first compound 10 µM
[19] = second compound 0.0316 µM, first compound 0.0316 µM
[20] = second compound 0.0316 µM, first compound 0.1 µM
[21] = second compound 0.0316 µM, first compound 0.316 µM
[22] = second compound 0.0316 µM, first compound 1 µM
[23] = second compound 0.0316 µM, first compound 3.16 µM
[24] = second compound 0.0316 µM, first compound 10 µM
[25] = second compound 0.1 µM, first compound 0.0316 µM
[26] = second compound 0.1 µM, first compound 0.1 µM
[27] = second compound 0.1 µM, first compound 0.316 µM
[28] = second compound 0.1 µM, first compound 1 µM
[29] = second compound 0.1 µM, first compound 3.16 µM
[30] = second compound 0.1 µM, first compound 10 µM
[31] = second compound 0.316 µM, first compound 0.0316 µM
[32] = second compound 0.316 µM, first compound 0.1 µM
[33] = second compound 0.316 µM, first compound 0.316 µM
[34] = second compound 0.316 µM, first compound 1 µM
[35] = second compound 0.316 µM, first compound 3.16 µM
[36] = second compound 0.316 µM, first compound 10 µM
[37] = second compound 1 µM, first compound 0.0316 µM
[38] = second compound 1 µM, first compound 0.1 µM
[39] = second compound 1 µM, first compound 0.316 µM
[40] = second compound 1 µM, first compound 1 µM
[41] = second compound 1 µM, first compound 3.16 µM
[42] = second compound 1 µM, first compound 10 µM
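Also: spheroids exposed to agents for seven days before reading.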
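For viability, T/C in this document: percent of vehicle control luminescence where 100% = DMSO treated spheroids.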

C=CC(=O)N1CCN(c2nc(=O)n(-c3c(C)ccnc3C(C)C)c3nc(-c4c(O)cccc4F)c(F)cc23)C(C)C1 (stereo not drawn) + CC(Nc1ccc2c(c1)OCCn1cc(N3C(=O)OCC3C(F)F)nc1-2)C(N)=O
inactive: viability, T/C [7] 111% | viability, T/C [8] 99.1% | viability, T/C [9] 117% | viability, T/C [10] 105% | viability, T/C [11] 106% | viability, T/C [12] 92.3% | viability, T/C [13] 121% | viability, T/C [14] 106% | viability, T/C [15] 111% | viability, T/C [16] 114% | viability, T/C [17] 115% | viability, T/C [18] 92.3% | viability, T/C [19] 101% | viability, T/C [20] 108% | viability, T/C [21] 98.2% | viability, T/C [22] 106% | viability, T/C [23] 123% | viability, T/C [24] 92.5% | viability, T/C [25] 92.4% | viability, T/C [26] 106% | viability, T/C [27] 107% | viability, T/C [28] 115% | viability, T/C [29] 103% | viability, T/C [30] 92.5% | viability, T/C [31] 92.6% | viability, T/C [32] 93.1% | viability, T/C [33] 84.1% | viability, T/C [34] 95.2% | viability, T/C [35] 84.5% | viability, T/C [36] 78.1% | viability, T/C [37] 73.1% | viability, T/C [38] 71.9% | viability, T/C [39] 73.5% | viability, T/C [40] 80.7% | viability, T/C [41] 91.8% | viability, T/C [42] 66.2%
> 10 µM: IC50 [1] | IC50 [2] | IC50 [3] | IC50 [4] | IC50 [5] | IC50 [6]

CC1(C)CCC(Nc2ncc(C(F)(F)F)c(-c3c[nH]c4c(P(C)(C)=O)c(C#N)ccc34)n2)CN1 (stereo not drawn) + COc1c(OCCCN2CCOCC2)ccc2c3n(c(=NC(=O)c4cnc(N)nc4)nc12)CCN3
< 0.0316 µM: IC50 [1] | IC50 [2] | IC50 [3] | IC50 [4] | IC50 [5] | IC50 [6]
inactive: viability, T/C [7] 25.2% | viability, T/C [8] 25.7% | viability, T/C [9] 31.6% | viability, T/C [10] 31.4% | viability, T/C [11] 41.1% | viability, T/C [12] 4.79% | viability, T/C [13] 28.9% | viability, T/C [14] 25.2% | viability, T/C [15] 25.1% | viability, T/C [16] 30.8% | viability, T/C [17] 35.1% | viability, T/C [18] 3.26% | viability, T/C [19] 26.3% | viability, T/C [20] 23.6% | viability, T/C [21] 26.5% | viability, T/C [22] 27.7% | viability, T/C [23] 31% | viability, T/C [24] 9.93% | viability, T/C [25] 22% | viability, T/C [26] 22.2% | viability, T/C [27] 19.9% | viability, T/C [28] 21.8% | viability, T/C [29] 21% | viability, T/C [30] 1.86% | viability, T/C [31] 15.5% | viability, T/C [32] 13.7% | viability, T/C [33] 13.2% | viability, T/C [34] 16.3%
active: viability, T/C [35] 12.5% | viability, T/C [36] 1.02% | viability, T/C [37] 6.13% | viability, T/C [38] 5.76% | viability, T/C [39] 6.72% | viability, T/C [40] 8.34% | viability, T/C [41] 7.64% | viability, T/C [42] 1.32%

CCCS(=O)(=O)Nc1ccc(F)c(C(=O)c2c[nH]c3ncc(-c4ccc(Cl)cc4)cc23)c1F
inactive: viability, T/C (compound 0.0316 µM) 103% (2×) and 105% and 102% | viability, T/C (compound 0.1 µM) 108% [middle of 4 runs] | viability, T/C (compound 0.316 µM) 112% [middle of 4 runs] | viability, T/C (compound 1 µM) 110% [middle of 4 runs] | viability, T/C (compound 3.16 µM) 91.3% [middle of 4 runs]
active: viability, T/C (compound 10 µM) 0.48% [middle of 4 runs]
5.33 µM [middle of 4 runs]: IC50 (curve of compound)

CCCS(=O)(=O)Nc1ccc(F)c(C(=O)c2c[nH]c3ncc(-c4ccc(Cl)cc4)cc23)c1F + CC(Nc1ccc2c(c1)OCCn1cc(N3C(=O)OCC3C(F)F)nc1-2)C(N)=O
4.72 µM: IC50 [3]
3.55 µM: IC50 [6]
4.48 µM: IC50 [5]
active: viability, T/C [12] 0.36% | viability, T/C [18] 0.28% | viability, T/C [24] 0.32% | viability, T/C [30] 2.36% | viability, T/C [36] 0.44% | viability, T/C [42] 0.54%
5.19 µM: IC50 [1]
inactive: viability, T/C [7] 108% | viability, T/C [8] 105% | viability, T/C [9] 105% | viability, T/C [10] 106% | viability, T/C [11] 87.5% | viability, T/C [13] 112% | viability, T/C [14] 91% | viability, T/C [15] 109% | viability, T/C [16] 129% | viability, T/C [17] 96.5% | viability, T/C [19] 104% | viability, T/C [20] 111% | viability, T/C [21] 93.3% | viability, T/C [22] 112% | viability, T/C [23] 76.5% | viability, T/C [25] 98.3% | viability, T/C [26] 92.3% | viability, T/C [27] 97.9% | viability, T/C [28] 98.9% | viability, T/C [29] 77.3% | viability, T/C [31] 94.5% | viability, T/C [32] 83.4% | viability, T/C [33] 88.1% | viability, T/C [34] 84.5% | viability, T/C [35] 71.9% | viability, T/C [37] 63.8% | viability, T/C [38] 60.6% | viability, T/C [39] 65.8% | viability, T/C [40] 64.9% | viability, T/C [41] 55.2%
5.51 µM: IC50 [2]
4.82 µM: IC50 [4]

From PubChem BioAssay AID1963974 (Molecular Pharmacology Branch, DTP, NCI, 2024)
